Results reported in article PMC6054100, “Exploring the chemical space of the lysine-binding pocket of the first kringle domain of hepatocyte growth factor/scatter factor (HGF/SF) yields a new class of inhibitors of HGF/SF-MET binding” (Chemical Science, 2015).

Key:
[1] = target: T1, lysine-binding pocket of the kringle domain of NK1 (Homo sapiens, UniProt P14210); test: Soaking into NK1 apo crystals, X-ray crystallography; settings: soaked into NK1 apo crystals
T1 construct: made in house; host or cells: Pichia pastoris
Description: Next, three classes of piperazine-like sulphonated compounds containing piperazine ((H)EPPS and PIPES), morpholine (MES and MOPS), or cyclohexane (CHES and CAPS) rings were studied for their binding to NK1 (Table 1), alongside another five sulphonated compounds selected from a chemical fragment library (Table 2).
NK1 buffered in 150 mM NaCl, 50 mM Tris, pH 7.5 (apo-NK1 and all soaking experiments) was concentrated to ∼20 mg mL^–1 using a Vivaspin device with a 10 kDa cut-off membrane (Sartorius Biolab). Crystallisation was carried out in Linbro plates by the vapour diffusion hanging drop technique using a protein : precipitant ratio of 1 : 1 at 20 °C. Previously NK1 has been crystallised in 18% PEG 4000, 200 mM sodium acetate and 150 mM Tris pH 8.5 as precipitant.[19] Here final crystallisation conditions (19% PEG 4000, 200 mM sodium acetate and 150 mM Tris pH 7.5) were optimised around those to achieve high-resolution apo structure. Details of compound soaking, X-ray data collection and structure determination are given in the ESI ^† section of the manuscript. […]
For this, 1 M stock solutions were prepared in DMSO (fragments) or water (piperazine- like compounds) and the pH adjusted to a value within their buffering range with either HCl or NaOH. The seven piperazine- like compounds and their respective pH are: HEPES (pH 7.6), (H)EPPS (pH 7.4), PIPES (pH 7.0), MES (pH 5.8), MOPS (pH 7.2), CHES (pH 8.6) and CAPS (pH 9.7). Secondary stocks of the compounds at 50 mM were prepared in the […]
respective mother liquor and soaked for up to 48 hours.
MB605 was solubilised in 50% DMSO at 20 mM concentration (1% f inal DMSO concentration in the drop) in order to minimize adverse effects of DMSO on the protein crystal. 25% ethylene glycol was used as the cryoprotective agent.
X-ray data collection and processing
X-ray datasets were collected either at the European Synchrotron Radiation Facility (ESRF, Grenoble, France), the Diamond Light Source (DLS, Oxford, UK) or in-house using the X8 PROTEUM (Bruker AXS) at the Department of Biochemistry, University of Cambridge.
Datasets of at least 180° were collected. Raw data collected at synchrotrons were integrated, merged, scaled and reduced using DENZO and […].2 Raw data […]
collected in- house were integrated, merged, scaled and reduced using the PROTEUM 2 software package .3 The CCP4 suite of crystallographic programs (Collaborative

[2] = system: MET downstream signalling (Erk 1/2, Akt) in Vero cells; test: MET, Erk1/2 and Akt phosphorylation assay in NK1-stimulated Vero cells (Western blot); assay type: cell-based; settings: Vero cells stimulated with NK1
Description: We evaluated the effect of piperazine-like compounds and MB605 on Vero cells by assessing MET, Erk 1/2 and Akt phosphorylation in response to stimulation using […] NK1. MB605 was dissolved in DMSO, which limited the range of concentrations tested to ≤1 mM in order to avoid solvent effects on cell function/viability. The water-soluble piperazine-like compounds, in contrast, could be tested at concentrations up to 100 mM.
Fig. 6 Biological activity of the piperazine-like compounds and MB605. (a–e) Vero cells expressing the receptor endogenously on their cell surface were stimulated with HGF/SF or NK1 and phosphorylation of MET and downstream targets Akt and Erk1/2 was analysed. Piperazine-like compounds HEPES (a), (H)EPPS (b), MES (c), MOPS (d) and CAPS (e) were tested at 100 mM (lanes 4), 10 mM (lanes 5), 1 mM (lanes 6) and 100 μM (lanes 7) concentration in the presence of 1 nM NK1. To control for activating or inhibiting effects of the compounds independently of MET, piperazine-like compounds were tested on cells at 100 mM without stimulation by NK1 (lanes 3). Biological activity of MB605 (f) was investigated at 1 mM (lane 5), 100 μM (lane 6) and 10 μM (lane 7) in the presence of a constant concentration of DMSO (0.1%). A solvent control (0.1% DMSO, lane 3) was included in order to account for the effect of DMSO on the cells. A positive control (1 nM NK1 in the presence of 0.1% DMSO) is shown in lane 4. In all experiments, un-stimulated cells served as negative control (lanes 1) while cells stimulated with 1 nM NK1 served as positive control (lanes 2).
The ability of MB605 and the piperazine-like compounds to inhibit MET, Erk and Akt phosphorylation in the presence of NK1 was tested using mammalian Vero cells as described by Ferraris et al.[47] and further details are given in the ESI ^† section of the manuscript. […]
For MET, Erk1/2 and Akt phosphorylation assays, Vero cells were seeded at 2.1 × 10^5 cells we ll -1 (2 ml we ll -1) in 6-well plates and grown to 90% conf luence in 10% FCS/DMEM media and then switched to serum-free medium (to avoid any growth f actors present in the serum).
24 hours post starvation the cells were stimulated for 5 min at 37°C with each individual piperazine -like compounds as well as with NK1 (1 nM) pre-incubated with different concentrations of the piperazine- like compounds (100 mM, 10 mM, 1 mM and 100 μM) or MB605 (1 mM, 100 μM and 10 μM). Stimulations with either 0. 1% DMS O or 1 nM of NK1 […]
solution were used as a negative and a positive control, respectively. The cells were then washed in PBS buffer, lysed on ice f or 30 min and frozen at -80 °C until further analysis. For

[3] = target: T2, NK1 (Homo sapiens, UniProt P14210); test: SPR steady-state binding to immobilized NK1 (Biacore T100); set-up: made in house; host or cells: Pichia pastoris; settings: steady-state binding constants; piperazine-like compounds; immobilized NK1, PBS pH 7.4; read-out: KD in SPR
Description: Binding constants of piperazine-like compounds and fragments were determined using a Biacore T100 instrument. NK1 was immobilized on a CM5 chip by amine coupling to a density of 6000 RU. Compounds were stored as 100 mM stock solutions in water and serial dilutions were prepared in the running buffer (PBS pH 7.4, 0.05% Tween 20). The compound solutions were injected onto the surface of the chip at a flow rate of 30 μL min^–1, contact time was 1 min and dissociation time 1 min. Sensorgrams were analysed using the Biacore T100 evaluation software and the binding constants determined.

[4] = target: T2, NK1; test: 1H-15N TROSY-HSQC NMR chemical shift titration of 15N-labelled NK1; assay type: binding; set-up: made in house; host or cells: Pichia pastoris; settings: steady-state binding constants; piperazine-like compounds; 0.18 mM NK1, pH 7.2, 310 K; read-out: KD in NMR
Description: Ligand screening was performed by monitoring the chemical shift variations in ^1H-^15N TROSY-HSQC NMR spectra of the uniformly [^15N]-labelled NK1 protein (Fragai et al. 2015, in prep.) upon the addition of increasing concentrations of the investigated compounds.[43]–[45] The experiments were performed using 0.18 mM protein samples in 25 mM Tris, 100 mM NaCl and 0.01% sodium azide, at pH 7.2 with 10% D2O. The spectra were recorded at 310 K on a Bruker AVANCE 900 MHz spectrometer equipped with a TXI cryo-probe. Sample solutions were prepared from 1 M or 100 mM DMSO stock solutions of the ligands. The dissociation constant values (KD) were calculated by plotting the weighted average ^1H and ^15N chemical shifts of the residues experiencing significant variations as a function of ligand concentration added during the titration and considering the one site binding model.[46]

[5] = target: T2, NK1; test: Binding of lysine analogues to NK1 (unpublished data); settings: A. G. S.
[6] = system: NK1-MET complexes; set-up: method as in Lauris Kemp, personal communication; settings: buffers containing 50 mM HEPES; ref Lauris Kemp, personal communication; cited from earlier work

T2 sequence (P14210 32-210 isoform P14210-6 limits assumed): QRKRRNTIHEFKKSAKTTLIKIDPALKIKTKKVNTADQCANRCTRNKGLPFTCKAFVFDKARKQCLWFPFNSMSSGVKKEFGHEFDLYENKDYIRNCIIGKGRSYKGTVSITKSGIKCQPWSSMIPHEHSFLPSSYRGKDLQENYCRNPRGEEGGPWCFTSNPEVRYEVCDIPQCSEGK
T1 sequence (P14210 32-210 isoform P14210-6 limits assumed): as above

| SMILES | binding in the lysine-binding pocket (crystal structure) [1] | Kd [3] [mM] | Kd [4] [mM] | binding to NK1 [5] | Inhibition of phosphorylation of Erk 1/2 and Akt (S473) ([2]; compound 100 mM (lanes 4)) | Inhibition of phosphorylation of Erk 1/2 and Akt (S473) ([2]; compound 10 mM (lane 5)) | formation of NK1-MET complexes [6] |
| --- | --- | --- | --- | --- | --- | --- | --- |
| O=S(=O)(O)CCCN1CCN(CCO)CC1 [(H)EPPS] | – | 7 ± 1 | 4.4 ± 1.8 | – | Inhibition of phosphorylation | – | – |
| NC[C@H]1CC[C@H](C(=O)O)CC1 [AMCHA, trans-4-(aminomethyl)cyclohexane-1-carboxylic acid] | – | – | – | neither EACA or AMCHA binds NK1 | – | – | – |
| O=S(=O)(O)CCCNC1CCCCC1 [CAPS] | bind the lysine-binding pocket of NK1 | 1.2 ± 0.2 | 1.4 ± 0.5 | – | Inhibition of phosphorylation | active | – |
| O=S(=O)(O)CCNC1CCCCC1 [CHES] | bind the lysine-binding pocket of NK1 | 30.2 ± 3.1 | 15.7 ± 4.5 | – | – | – | – |
| NCCCCCC(=O)O [EACA, ε-aminocaproic acid] | – | – | – | neither EACA or AMCHA binds NK1 | – | – | – |
| O=S(=O)(O)CCN1CCN(CCO)CC1 [HEPES, 4-(2-hydroxyethyl)-1-piperazineethanesulfonic acid] | bound into the lysine-binding pocket | 2.4 ± 0.4 | 3.3 ± 0.4 | – | Inhibition of phosphorylation | – | inhibited |

Now from value to compound, other results behind:

| binding in the lysine-binding pocket (crystal structure) [1] | Kd [3] [mM] | Kd [4] [mM] | binding to NK1 [5] | SMILES | Inhibition of phosphorylation of Erk 1/2 and Akt (S473) ([2]; compound 100 mM (lanes 4)) | Inhibition of phosphorylation of Erk 1/2 and Akt (S473) ([2]; compound 10 mM (lane 5)) | formation of NK1-MET complexes [6] |
| --- | --- | --- | --- | --- | --- | --- | --- |
| bound in the lysine-binding pocket | – | – | – | O=S(=O)(O)CCCO [2FA, 3-Hydroxypropane-1-sulphonic acid] | – | – | – |
| bind the lysine-binding pocket of NK1 | 24.3 ± 3.1 | 13.4 ± 5.7 | – | O=S(=O)(O)CCN1CCOCC1 [MES] | Inhibition of phosphorylation | – | – |
| bind the lysine-binding pocket of NK1 | 7 ± 1 | 4.7 ± 1.7 | – | O=S(=O)(O)CCCN1CCOCC1 [MOPS] | Inhibition of phosphorylation | – | – |
